Where two headings read alike, the source gives them in different places.
Columns and labels:
[1] = target: T1, human PPARγ (Homo sapiens, UniProt P37231); test: Human PPAR activation in transient transfection study, transfected CV-1 cells (gamma subtype); assay type: cell-based
T1 construct: expressed in transfected cells; host or cells: CV-1 cells (transient transfection)
T1 sequence (P37231 1-505): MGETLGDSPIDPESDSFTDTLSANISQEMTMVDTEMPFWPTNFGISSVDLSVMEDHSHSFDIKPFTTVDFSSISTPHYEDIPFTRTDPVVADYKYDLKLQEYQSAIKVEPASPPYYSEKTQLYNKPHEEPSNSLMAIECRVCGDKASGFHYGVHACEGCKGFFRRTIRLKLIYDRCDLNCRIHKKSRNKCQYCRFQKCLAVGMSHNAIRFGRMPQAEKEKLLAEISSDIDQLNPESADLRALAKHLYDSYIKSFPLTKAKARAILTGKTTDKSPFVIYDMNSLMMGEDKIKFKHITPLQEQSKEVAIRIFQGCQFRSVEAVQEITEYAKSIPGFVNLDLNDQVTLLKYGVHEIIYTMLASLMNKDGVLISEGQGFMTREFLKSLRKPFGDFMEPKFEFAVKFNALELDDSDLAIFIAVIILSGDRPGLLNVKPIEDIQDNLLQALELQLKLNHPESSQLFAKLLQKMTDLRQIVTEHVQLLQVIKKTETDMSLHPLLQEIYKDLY
From the text: (§1) The table summarize the results of studies performed in transfected CV-1 cells with three different lots of Compound of Example 11. […].

[2] = target: T2, human PPARδ (Homo sapiens, UniProt Q03181); test: Human PPAR activation in transient transfection study, transfected CV-1 cells (delta subtype); assay type: cell-based
T2 construct: expressed in transfected cells; host or cells: CV-1 cells (transient transfection)
T2 sequence (Q03181 1-441): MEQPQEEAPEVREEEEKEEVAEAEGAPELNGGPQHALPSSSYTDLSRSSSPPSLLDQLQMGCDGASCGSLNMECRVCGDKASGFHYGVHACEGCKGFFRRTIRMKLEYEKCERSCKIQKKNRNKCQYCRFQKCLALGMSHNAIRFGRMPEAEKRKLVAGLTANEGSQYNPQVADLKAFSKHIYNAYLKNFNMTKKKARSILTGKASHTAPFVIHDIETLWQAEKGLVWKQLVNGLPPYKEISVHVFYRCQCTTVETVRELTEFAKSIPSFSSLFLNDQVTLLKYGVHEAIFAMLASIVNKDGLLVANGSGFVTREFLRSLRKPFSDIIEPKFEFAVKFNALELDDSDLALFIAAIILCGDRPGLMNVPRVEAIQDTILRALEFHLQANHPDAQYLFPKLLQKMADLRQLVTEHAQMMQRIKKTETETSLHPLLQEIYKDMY

[3] = target: T3, human PPARα (Homo sapiens, UniProt Q07869); test: Human PPAR activation in transient transfection study, transfected CV-1 cells (alpha subtype); assay type: cell-based
T3 construct: expressed in transfected cells; host or cells: CV-1 cells (transient transfection)
T3 sequence (Q07869 1-468): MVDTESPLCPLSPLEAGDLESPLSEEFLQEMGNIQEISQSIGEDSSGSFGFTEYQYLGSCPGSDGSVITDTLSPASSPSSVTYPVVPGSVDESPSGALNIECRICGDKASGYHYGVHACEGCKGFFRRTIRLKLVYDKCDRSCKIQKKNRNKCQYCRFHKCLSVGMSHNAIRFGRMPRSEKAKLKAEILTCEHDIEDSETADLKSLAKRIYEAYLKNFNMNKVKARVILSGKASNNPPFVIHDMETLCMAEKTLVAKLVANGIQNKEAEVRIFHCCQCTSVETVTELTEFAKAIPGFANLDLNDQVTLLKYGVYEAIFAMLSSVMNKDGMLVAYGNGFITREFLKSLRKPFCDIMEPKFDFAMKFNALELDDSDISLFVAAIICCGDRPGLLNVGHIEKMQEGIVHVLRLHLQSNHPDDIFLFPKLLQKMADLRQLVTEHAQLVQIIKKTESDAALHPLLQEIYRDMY
From the text: as §1

[4] = Rat brain penetrance pharmacokinetics, brain to plasma ratio after oral dosing; assay type: in vivo, male Sprague-Dawley rats; conditions: for concentration at 7 h: time point 7.0, individual rats
From the text: Blood brain penetration studies can be carried out as described in recent publications and as is known by those skilled in the art. (See: Chang, K. L., et al. Influence of drug transporters and stereoselectivity on the brain penetration of pioglitazone as a potential medicine against Alzheimer's disease. Science Reports 2014, 5, 9000). In brief, A good measure of whether a small molecule penetrates the BBB and is not rapidly transported out, is the brain to plasma ratio of the drug. This is measured in pre-clinical animal models by determining plasma concentration vs time curves as in a standard pharmacokinetic study, and in addition harvesting brains and determining whole brain concentrations over time. The brain to plasma concentration ratio can them be determined at any time point, such as the […], or for the entire time curve (AUC, area under the curve). Clinically, FDG-PET can be used as a measure of the pharmacological effect of T3D-959, and an indirect measure of brain levels of drug.
For compounds of the present invention to be effective in treating neurotoxicity or neurodegeneration, it must have an ability to cross the BBB and penetrate the brain. […] The plasma exposure as measured by AUClast was 9569±1190 hr*ng/mL.

[5] = system: Relative Cerebral Metabolic Rate for glucose; test: FDG-PET clinical study, two week treatment; assay type: in vivo, human
From the text: The majority were non-Hispanic and of white origin.

[6] = Caco-2 permeability with and without P-gp inhibitor verapamil; conditions: human, Caco-2
[7] = system: human Caco-2; test: as above; conditions: Caco-2 with/without verapamil

## CCc1oc(-c2ccc(OC)cc2)nc1CCOc1ccc2c(c1)CC[C@H]2CC(=O)[O-].[Na+] [Example 11, Sodium (S)-2-(5-(2-(5-ethyl-2-(4-methoxyphenyl)oxazol-4-yl)ethoxy)-2,3-dihydro-1H-inden-1-yl)acetate]
[1]; Lot A, Non GMP, read-out: EC50 PPARγ
  EC50: 220 nM
[1]; Lot B, GLP Nonclinical Studies, read-out: EC50 PPARγ
  EC50: 270 nM
[1]; Lot C, cGMP material, read-out: EC50 PPARγ
  EC50: 400 nM
[1]; average of three lots, read-out: Average EC50 PPARγ
  EC50: 297 nM
[2]; Lot A, Non GMP, read-out: EC50 PPARδ
  EC50: 15 nM
[2]; Lot B, GLP Nonclinical Studies, read-out: EC50 PPARδ
  EC50: 27 nM
[2]; Lot C, cGMP material, read-out: EC50 PPARδ
  EC50: 16 nM
[2]; average of three lots, read-out: Average EC50 PPARδ
  EC50: 19 nM
[3]; Lot A, Non GMP, read-out: EC50 PPARα
  EC50: 488 nM
[3]; Lot B, GLP Nonclinical Studies, read-out: EC50 PPARα
  EC50: 750 nM
[3]; Lot C, cGMP material, read-out: EC50 PPARα
  EC50: 360 nM
[3]; PPARδ vs PPARα
  selectivity over the human PPAR alpha subtype: ~30 fold
[3]; average of three lots, read-out: Average EC50 PPARα
  EC50: 530 nM
[4]; 3 mg/kg oral
  time plasma Cmax reached post dose: 5 h
[4]; male, Sprague-Dawley, rat, brain, oral, 3 mg/kg, read-out: Brain Tissue Cone.
  concentration at 7 h: 130 ng/g
[4]; male, Sprague-Dawley, rat, in vivo, 3 mg/kg, time point 3.0, individual rats, read-out: B/P Ratio
  Kp at 3 h: 0.19
[4]; male, Sprague-Dawley, rat, in vivo, 3 mg/kg, time point 3.0, individual rats, read-out: Brain Tissue Cone.
  concentration at 3 h: 274 ng/g
[4]; male, Sprague-Dawley, rat, in vivo, 3 mg/kg, time point 3.0, individual rats, read-out: Plasma Conc.
  concentration at 3 h: 1430 ng/mL
[4]; male, Sprague-Dawley, rat, in vivo, 3 mg/kg, time point 5.0, individual rats, read-out: B/P Ratio
  Kp at 5 h: 0.17
[4]; male, Sprague-Dawley, rat, in vivo, 3 mg/kg, time point 5.0, individual rats, read-out: Brain Tissue Cone.
  concentration at 5 h: 208 ng/g
[4]; male, Sprague-Dawley, rat, in vivo, 3 mg/kg, time point 5.0, individual rats, read-out: Plasma Conc.
  concentration at 5 h: 1260 ng/mL
[4]; male, Sprague-Dawley, rat, in vivo, 3 mg/kg, read-out: Brain Tissue Cone.
  concentration at 7 h: 203 ng/g
[4]; male, Sprague-Dawley, rat, in vivo, 3 mg/kg, time point 12.0, individual rats, read-out: B/P Ratio
  Kp at 12 h: 0.3
[4]; male, Sprague-Dawley, rat, in vivo, 3 mg/kg, time point 12.0, individual rats, read-out: Brain Tissue Cone.
  concentration at 12 h: 104 ng/g
[4]; male, Sprague-Dawley, rat, in vivo, 3 mg/kg, time point 12.0, individual rats, read-out: Plasma Conc.
  concentration at 12 h: 345 ng/mL
[4]; male, Sprague-Dawley, rat, in vivo, po, 3 mg/kg, 1 hour, 3 mg/kg oral
  Kp at 1 h: 0.361 ± 0.142
[4]; male, Sprague-Dawley, rat, in vivo, po, 3 mg/kg, 3 hours, 3 mg/kg oral, read-out: Brain/Plasma ratio
  Kp at 3 h: 0.22 ± 0.033
[4]; male, Sprague-Dawley, rat, in vivo, po, 3 mg/kg, 5 hours, 3 mg/kg oral, read-out: Brain/Plasma ratio
  Kp at 5 h: 0.171 ± 0.011
[4]; male, Sprague-Dawley, rat, in vivo, po, 3 mg/kg, 7 hours, 3 mg/kg oral
  Kp at 7 h: 0.328 ± 0.154
[4]; male, Sprague-Dawley, rat, in vivo, po, 3 mg/kg, 12 hours, 3 mg/kg oral, read-out: Brain/Plasma ratio
  Kp at 12 h: 0.35 ± 0.077
[4]; male, Sprague-Dawley, rat, in vivo, 3 mg/kg oral
  half-life: 3.33 h
[4]; male, Sprague-Dawley, rat, in vivo, 3 mg/kg oral, normal saline
  Cmax: 1550 ± 248 ng/mL
[4]; male, Sprague-Dawley, rat, in vivo, 3 mg/kg oral, read-out: plasma exposure AUClast
  AUC(0-t): 9570 ± 1190 ng·h/mL
[4]; male, Sprague-Dawley, rat, plasma, oral, 3 mg/kg, time point 3.0, individual rats, read-out: Plasma Conc.
  concentration at 3 h: 910 ng/mL
[5]; 10 mg
  number of voxels with statistically significant differences from baseline to end of treatment (ROSDs): 70 voxels
[5]; clinical, 3 to 90 mg
  penetration of the Blood Brain Barrier (FDG-PET, voxel-wise analysis): penetrates the Blood Brain Barrier (BBB) even at the lowest 3 mg
[5]; sROI, anatomical ROI and voxel-wise SPM analyses
  dose dependence of the effect on FDG-PET outcomes: dose-dependent, with larger effects observed at larger doses
[6]
  Papp: 114 ×10⁻⁶ cm/s
[7]
  P-gp substrate: not a substrate for P-gp

— patent US20210212996A1, “METHODS OF TREATING NEURODEGENERATIVE DISEASES USING INDANE ACETIC ACID DERIVATIVES WHICH PENETRATE THE BLOOD BRAIN BARRIER” (DARA BioSciences, Inc., priority 2009, published 2021)
